Assay results taken from US6689372B1, “Microbicidal active substances” (Ciba Specialty Chemicals Corporation, priority 1998, dated 2004).

Key:
Format in all cases: cell-based
[1] = system: Aspergillus niger ATCC 6275; assay: Agar incorporation test (MIC test); details: A. niger
Experimental: (§1) Determination of the Minimum Inhibiting Concentration (MIC) in the Agar Incorporation Test (MIC Test)
(§2) When the nutrient substrate has solidified, 10 μl portions of the following organism dilutions of the test strains in 0.85% NaCl solution are spotted onto the agar medium:
(§3) The plates are incubated at 37° C. for 24 hours (A.niger 3 days at 28° C.) and then the highest dilution of the test substance at which growth is just no longer discernible (corresponds to MIC) is determined.

[2] = system: Staphylococcus aureus ATCC 9144; assay: Agar incorporation test (MIC test); details: S. aureus
Experimental: as §1, §2, §3

[3] = system: Staphylococcus epidermidis ATCC 12228; assay: Agar incorporation test (MIC test); details: S. epidermidis
Experimental: as §1, §2, §3

[4] = system: Pseudomonas aeruginosa CIP A-22; assay: Agar incorporation test (MIC test); details: P. aeruginosa
Experimental: as §1, §2, §3

[5] = system: Candida albicans ATCC 10231; assay: Agar incorporation test (MIC test); details: C. albicans
Experimental: as §1, §2, §3

[6] = system: Corynebacterium xerosis ATCC 373; assay: Agar incorporation test (MIC test); details: C. xerosis
Experimental: as §1, §2, §3

[7] = system: Escherichia coli NCTC 8196; assay: Agar incorporation test (MIC test); details: E. coli
Experimental: as §1, §2, §3

[8] = system: Staphylococcus aureus ATCC 9144; assay: Agar diffusion test; further: values in mm; details: S. aureus ATCC 9144
Experimental: (§4) Determination of antimicrobial activity in the agar diffusion test [table] After the bacteria precultures have been incubated, they are diluted 1:100 with dilution medium. 3.5 ml of that dilution of the bacteria are introduced into 500 ml of agar and from that organism-containing agar plates of about 15 ml of medium are poured. […] After the agar plates have cooled and solidified, wells are punched in the agar (diameter 10 mm) and 100 μl of test substance solution are introduced into each well. After incubation of the plates, the diameters of the growth-free inhibiting areolas in the agar are determined.

[9] = system: Pseudomonas aeruginosa ATCC 15 442; assay: Agar diffusion test; further: values in mm; details: P. aeruginosa ATCC 15 442
Experimental: as §4

[10] = system: Candida albicans ATCC 10231; assay: Agar diffusion test; further: values in mm
Experimental: as §4

[11] = system: Escherichia coli NCTC 8196; assay: Agar diffusion test; further: values in mm; details: E. coli NCTC 8196
Experimental: as §4

[12] = system: Aspergillus niger ATCC 6275; assay: Agar diffusion test; further: values in mm; details: A. niger ATCC 6275
Experimental: Determination of antimicrobial activity in the agar diffusion test [table] After the bacteria precultures have been incubated, they are diluted 1:100 with dilution medium. 3.5 ml of that dilution of the bacteria are introduced into 500 ml of agar and from that organism-containing agar plates of about 15 ml of medium are poured. The test substances are dissolved in a suitable solvent in final concentrations of 1-3%. After the agar plates have cooled and solidified, wells are punched in the agar (diameter 10 mm) and 100 μl of test substance solution are introduced into each well. After incubation of the plates, the diameters of the growth-free inhibiting areolas in the agar are determined.

[13] = 1% in ethanol, C. albicans ATCC 10231
[14] = 2% in ethanol, C. albicans ATCC 10231

MIC ([1]; solution in EtOH)	MIC ([2]; solution in EtOH)	MIC ([3]; solution in EtOH)	MIC ([4]; solution in EtOH)	MIC ([5]; solution in EtOH)	MIC ([6]; solution in EtOH)	MIC ([7]; solution in EtOH)	SMILES	Inhibiting areola diameter ([12]; 1% in ethanol)	Inhibiting areola diameter ([12]; 2% in ethanol)	Inhibiting areola diameter ([8]; 1% in ethanol)	Inhibiting areola diameter ([8]; 2% in ethanol)	Inhibiting areola diameter [10, 13]	Inhibiting areola diameter [10, 14]	Inhibiting areola diameter ([11]; 1% in ethanol)	Inhibiting areola diameter ([11]; 2% in ethanol)	further results
100 ppm	100 ppm	100 ppm	1000 ppm	100 ppm	250 ppm	1000 ppm	O=c1oc(-c2ccccc2O)ns1 [compound 101]	–	–	–	–	–	–	–	–	–
600 ppm	100 ppm	100 ppm	600 ppm	100 ppm	200 ppm	600 ppm	O=c1oc(-c2cccnc2)ns1 [compound 103]	–	–	–	–	–	–	–	–	–
–	–	–	–	–	–	–	O=c1oc(-c2ccc([N+](=O)[O-])o2)ns1 [compound 105]	–	–	–	–	–	–	–	–	Inhibiting areola diameter ([8]; 0.1% in THF): 4/4; Inhibiting areola diameter ([8]; 0.5% in THF): 10/10; Inhibiting areola diameter ([8]; 1.0% in THF): 11/11; Inhibiting areola diameter ([8]; 3.0% in THF): 11/11; Inhibiting areola diameter ([9]; 0.1% in THF): 0/0; Inhibiting areola diameter ([9]; 0.5% in THF): 1/1; Inhibiting areola diameter ([9]; 1.0% in THF): 5/5; Inhibiting areola diameter ([9]; 3.0% in THF): 6/6; Inhibiting areola diameter ([10]; 0.1% in THF, C. albicans ATCC 10 231): 3/3; Inhibiting areola diameter ([10]; 0.5% in THF, C. albicans ATCC 10 231): 4/4; Inhibiting areola diameter ([10]; 1.0% in THF, C. albicans ATCC 10 231): 8/8; Inhibiting areola diameter ([10]; 3.0% in THF, C. albicans ATCC 10 231): 9/9; Inhibiting areola diameter ([11]; 0.1% in THF): 1/1; Inhibiting areola diameter ([11]; 0.5% in THF): 3/3; Inhibiting areola diameter ([11]; 1.0% in THF): 6/6; Inhibiting areola diameter ([11]; 3.0% in THF): 6/6
–	–	–	–	–	–	–	O=c1oc(-c2ccccc2)ns1 [compound 106]	–	–	–	–	–	–	–	–	MIC ([1]; solution in DMSO): 250 ppm; MIC ([2]; solution in DMSO): 10 ppm; MIC ([3]; solution in DMSO): 10 ppm; MIC ([4]; solution in DMSO): 1000 ppm; MIC ([5]; solution in DMSO): 100 ppm; MIC ([6]; solution in DMSO): 10 ppm; MIC ([7]; solution in DMSO): 100 ppm
–	–	–	–	–	–	–	O=c1oc(-c2ccc(Cl)cc2)ns1 [compound 107]	0/0	0/0	4/4	5/5	3/3	4/4	1/1	1/1	–
–	–	–	–	–	–	–	Cc1nsc(=O)o1 [compound 108]	4/5	12/12	12/12	20/20	8/8	10/10	1/1	3/2	–
